US20240246946A1, “MODULATORS OF TREX1” (Constellation Pharmaceuticals, Inc., priority 2021, published 2024)

How the values were obtained:
[1] = biological target: T1, full length human TREX1 (Homo sapiens, UniProt Q9NSU2); test: hTREX1 Biochemical Assay (fluorescence, dsDNA substrate degradation); details: biochemical, read-out: hTREX1 IC50
T1 construct: N-terminally His-Tev tagged full length human TREX1; made in house; host or cells: E. coli
T1 sequence (Q9NSU2 1-314): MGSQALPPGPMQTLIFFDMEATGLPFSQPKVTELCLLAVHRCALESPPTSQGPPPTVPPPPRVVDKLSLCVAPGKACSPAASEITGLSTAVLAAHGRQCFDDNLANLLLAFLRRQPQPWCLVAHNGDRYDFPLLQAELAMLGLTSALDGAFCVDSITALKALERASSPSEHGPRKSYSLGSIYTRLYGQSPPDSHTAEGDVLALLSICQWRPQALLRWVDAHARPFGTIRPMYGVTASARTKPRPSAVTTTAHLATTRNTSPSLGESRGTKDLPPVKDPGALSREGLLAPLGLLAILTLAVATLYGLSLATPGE
Procedure, shortened: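 Fluorescence rises as enzyme degrades a quenched TEX615-labelled dsDNA substrate (60 nM) in 50 mM Tris, 150 mM NaCl, 5 mM MgCl2, pH 7.4. Full-length His-Tev-tagged human TREX1, 4 pM, sits with compound 4 hours at 25° C before substrate; reaction 18 hours, stopped with EDTA.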

[2] = biological target: T2, full length mouse TREX1 (Mus musculus, UniProt Q91XB0); test: mTREX1 Biochemical Assay (fluorescence, dsDNA substrate degradation); details: biochemical, read-out: mTREX1 IC50
T2 construct: N-terminally His-Tev tagged full length mouse TREX1; made in house; host or cells: E. coli
T2 sequence (Q91XB0 1-314): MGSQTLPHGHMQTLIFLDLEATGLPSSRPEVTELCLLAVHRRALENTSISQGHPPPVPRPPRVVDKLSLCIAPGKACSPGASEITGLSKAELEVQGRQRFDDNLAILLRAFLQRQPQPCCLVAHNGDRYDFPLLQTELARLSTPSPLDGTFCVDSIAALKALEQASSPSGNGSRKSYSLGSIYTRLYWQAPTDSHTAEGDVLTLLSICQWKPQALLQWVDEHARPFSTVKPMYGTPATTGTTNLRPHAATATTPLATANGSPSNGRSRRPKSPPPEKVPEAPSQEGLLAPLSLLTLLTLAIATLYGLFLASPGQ
Procedure, shortened: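 Reaction run 18 h at 25° C. with 60 nM TEX615/quencher-labelled dsDNA and 6 pM mouse TREX1 in Tris buffer (pH 7.4, 5 mM MgCl2, 1.0% DMSO), enzyme having sat 4 h with compound across 10 concentrations. EDTA quench; substrate degradation measured as fluorescence increase.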

[3] = biological target: T3, hTREX1 (Homo sapiens, UniProt Q9NSU2); test: hTREX1 HCT116 Cell Assay (HCT116 dual cells, Lucia luciferase reporter of Type I interferon induction); assay type: cell-based; details: TREX1i 4 h before pBR322/BstNI transfection, read after 48 h
T3 construct: host or cells: HCT116 dual cells
T3 sequence (Q9NSU2 1-314): T1 sequence (Q9NSU2 1-314)
Text: HCT116 dual cells (Invivogen, San Diego, CA, USA) are derived from the human HCT116 colorectal carcinoma cell line. Cells have been selected for the stable integration of SEAP and Luciferase reporter genes, which expression is under the control of 5 tandem response elements for NF-KB/AP1 and STAT1/STAT2, respectively. The cell line was used to monitor Type I interferon induction and subsequent signaling by measuring the activity of the Lucia luciferase secreted in the culture medium.
HCT116 cells were plated in 96-well plate(s) at 40,000 cells/well in 100 uL DMEM supplemented with 10% FBS and 25 mM Hepes (pH 7.2-7.5). After overnight settling, cells were treated with TREX1i for 4 h (maximum DMSO fraction was 0.1%) before 1 ug/mL pBR322/BstNI restriction digest (New England Biolabs, Ipswich, MA, USA) was transfected with Lipofectamine LTX (ThermoFisher, Grand Island, NY, USA), according to product manual recommendations. Briefly, Lipofectamine LTX (0.35 uL/well) was diluted in OptiMEM (5 uL/well). pBR322/BstNI (100 ng/well) was diluted in OptiMEM (5 uL/well) before Plus reagent (0.1 uL/100 ng DNA) was added. After 5 min incubation at room temperature, the DNA mixture was mixed dropwise with the diluted Lipofectamine LTX. After an additional 10 min incubation, the transfection mix (10 uL/well) was added to the cells. Cells were maintained at 37 C for 48 h before monitoring the Lucia Luciferase activity from the cell culture medium.

[4] = biological target: T4, human TREX2 (residues M44-A279) (Homo sapiens, UniProt Q9BQ50); test: hTREX2 Biochemical Assay (fluorescence, dsDNA substrate degradation); details: biochemical selectivity for hTREX1 vs hTREX2
T4 construct: human TREX2 (residues M44-A279, expressed in E. coli); made in house; host or cells: E. coli
T4 sequence (Q9BQ50 44-279 isoform Q9BQ50-1): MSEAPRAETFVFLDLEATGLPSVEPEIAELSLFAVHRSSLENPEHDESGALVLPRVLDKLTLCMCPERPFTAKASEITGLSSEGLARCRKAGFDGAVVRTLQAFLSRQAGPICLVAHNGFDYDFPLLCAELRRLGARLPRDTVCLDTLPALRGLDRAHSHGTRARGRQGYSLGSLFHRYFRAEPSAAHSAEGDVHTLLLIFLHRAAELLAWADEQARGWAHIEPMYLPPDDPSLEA
Procedure, shortened: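 Fluorogenic dsDNA degradation read at 615 nm (570 nm excitation) after EDTA quench. Final 60 nM substrate, 50 pM His-Tev-tagged enzyme, 5 mM MgCl2, pH 7.4, 1.0% DMSO; 4 h compound–enzyme preincubation then 18 h reaction, both 25 °C; 10-point titration.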

IC50 [1] [nM] | IC50 [2] [nM] | IC50 [3] [nM] | hTREX1 vs hTREX2 selectivity [4] | Structure (SMILES)
1 to 10 | > 10 | > 100 | A (A = <25 fold selective for hTREX1) | Cc1cnc(C(c2ccccc2Cl)C(C)c2nc(C(=O)Nc3cnoc3)c(O)c(=O)n2C)cn1 (single isomer, unassigned) [Example 116 D2E1]
< 1 | 1 to 10 | 10 to 100 | C (C = >50 fold selective for hTREX1) | Cc1nn(C)cc1C(c1cc(F)ccc1C#N)C(c1nc(C(=O)Nc2cnoc2)c(O)c(=O)n1C)C(F)(F)F (single isomer, unassigned) [Example 42 D1E2]
< 1 | 1 to 10 | < 10 | A (A = <25 fold selective for hTREX1) | Cc1cnc(C(c2cc(F)ccc2Cl)C(C)c2nc(C(=O)Nc3cnoc3)c(O)c(=O)n2C)cn1 (single isomer, unassigned) [Example 117 D1E2]
< 1 | > 10 | 10 to 100 | C (C = >50 fold selective for hTREX1) | CC(c1nc(C(=O)Nc2cnoc2)c(O)c(=O)n1C)C(c1ccccc1)c1cccnc1C#N (single isomer, unassigned) [Example 155 D2E1]
1 to 10 | 1 to 10 | > 100 | A (A = <25 fold selective for hTREX1) | CC(c1nc(C(=O)Nc2cnoc2)c(O)c(=O)n1C)C(c1ccccc1Cl)n1cc2ccccc2n1 (single isomer, unassigned) [Example 141 D1E1]
> 10 | > 10 | > 100 | A (A = <25 fold selective for hTREX1) | Cc1cnc(C(c2ccccc2Cl)C(C)c2nc(C(=O)Nc3cnoc3)c(O)c(=O)n2C)cn1 (single isomer, unassigned) [Example 116 D1E1]
< 1 | < 1 | < 10 | C (C = >50 fold selective for hTREX1) | CC(c1nc(C(=O)Nc2cnoc2)c(O)c(=O)n1C)C(c1cnn(C)c1)c1ccc(C(F)(F)F)cc1C#N (single isomer, unassigned) [Example 30 D1E1]
> 10 | > 10 | > 100 | A (A = <25 fold selective for hTREX1) | CC(c1nc(C(=O)Nc2cnoc2)c(O)c(=O)n1C)C(c1cnn(C)c1)c1ccccc1C#N (single isomer, unassigned) [Example 2 D2E2]
< 1 | 1 to 10 | > 100 | A (A = <25 fold selective for hTREX1) | CC(c1nc(C(=O)Nc2cnoc2)c(O)c(=O)n1C)C(c1cnn(CC2COC2)c1)c1ccccc1Cl (single isomer, unassigned) [Example 88 D1E1]
1 to 10 | > 10 | > 100 | A (A = <25 fold selective for hTREX1) | COCCn1ncc(C(c2cc(F)ccc2Cl)C(C)c2nc(C(=O)Nc3cnoc3)c(O)c(=O)n2C)c1C (single isomer, unassigned) [Example 108 D1E1]
> 10 | > 10 | > 100 | A (A = <25 fold selective for hTREX1) | CC(c1nc(C(=O)Nc2cnoc2)c(O)c(=O)n1C)C(c1cnn(C)c1)c1ccccc1Cl (single isomer, unassigned) [Example 77 D2E1]
1 to 10 | > 10 | > 100 | A (A = <25 fold selective for hTREX1) | CC(c1nc(C(=O)Nc2cnoc2)c(O)c(=O)n1C)C(c1cnn(C(C)C)c1)c1ccccc1C#N (single isomer, unassigned) [Example 105 D2E1]
< 1 | 1 to 10 | < 10 | C (C = >50 fold selective for hTREX1) | Cc1n[nH]c(C)c1C(c1ccccc1C#N)C(C)c1nc(C(=O)Nc2cnoc2)c(O)c(=O)n1C (single isomer, unassigned) [Example 95 D1E1]
< 1 | 1 to 10 | > 100 | A (A = <25 fold selective for hTREX1) | Cc1cn(C(c2ccccc2Cl)C(C)c2nc(C(=O)Nc3cnoc3)c(O)c(=O)n2C)cn1 (single isomer, unassigned) [Example 142 D1E2]
1 to 10 | 1 to 10 | > 100 | C (C = >50 fold selective for hTREX1) | COCCn1cc(C(c2cc(F)ccc2Cl)C(C)c2nc(C(=O)Nc3cnoc3)c(O)c(=O)n2C)cn1 (single isomer, unassigned) [Example 97 D1E1]
< 1 | 1 to 10 | < 10 | C (C = >50 fold selective for hTREX1) | CC(c1nc(C(=O)Nc2cnoc2)c(O)c(=O)n1C)C(c1ccccc1Cl)c1cnn(C)c1C#N (single isomer, unassigned) [Example 96 D2E2]

Structure (SMILES) | IC50 [1] [nM] | IC50 [2] [nM] | IC50 [3] [nM] | hTREX1 vs hTREX2 selectivity [4]
CC(c1nc(C(=O)Nc2cnoc2)c(O)c(=O)n1C)C(c1cnn(C(F)(F)F)c1)c1ccccc1C#N (single isomer, unassigned) [Example 151 D2E1] | 1 to 10 | > 10 | > 100 | B (B = 25 to 50-fold selective for hTREX1)
CC(C)c1cnn(C(c2ccccc2Cl)C(C)c2nc(C(=O)Nc3cnoc3)c(O)c(=O)n2C)c1 (single isomer, unassigned) [Example 135 D1E1] | 1 to 10 | 1 to 10 | > 100 | B (B = 25 to 50-fold selective for hTREX1)
Cn1cc(C(c2ccccc2C#N)C(c2nc(C(=O)Nc3cnoc3)c(O)c(=O)n2C)C(F)(F)F)cn1 (single isomer, unassigned) [Example 40 D1E2] | < 1 | 1 to 10 | > 100 | B (B = 25 to 50-fold selective for hTREX1)
CCn1cc(C(c2ccccc2Cl)C(C)c2nc(C(=O)Nc3cnoc3)c(O)c(=O)n2C)cn1 (single isomer, unassigned) [Example 85 D1E1] | < 1 | < 1 | 10 to 100 | B (B = 25 to 50-fold selective for hTREX1)
Cc1cnn(C)c1C(c1ccccc1C#N)C(C)c1nc(C(=O)Nc2cnoc2)c(O)c(=O)n1C (single isomer, unassigned) [Example 84 D1E1] | < 1 | 1 to 10 | 10 to 100 | B (B = 25 to 50-fold selective for hTREX1)
Cc1cc(C)n(C(c2ccccc2Cl)C(C)c2nc(C(=O)Nc3cnoc3)c(O)c(=O)n2C)n1 (single isomer, unassigned) [Example 136 D1E2] | < 1 | > 10 | 10 to 100 | B (B = 25 to 50-fold selective for hTREX1)
